Reference: patent US20080114047A1 (priority 2003, published 2008)
Like-named read-outs stand apart in the source and are kept apart here.

Legend:
[1] = tested on: Trypanosoma brucei rhodesiense; experiment: Anti-protozoan data: T.b.r. IC50; assay type: cell-based; conditions: read-out: T.b.r. IC50
[2] = in vitro
[3] = tested on: L. donovani axenic amastigotes; experiment: In vitro anti-leishmania activity (IC50 vs. L. donovani axenic amastigotes); assay type: cell-based; conditions: Leishmania donovani
[4] = tested on: Plasmodium falciparum; experiment: Anti-protozoan data: P. falcip. IC50; assay type: cell-based; conditions: read-out: P. falcip. IC50
[5] = tested on: Trypanosoma cruzi; experiment: Anti-protozoan data: T. cruzi IC50; assay type: cell-based; conditions: read-out: T. cruzi IC50
[6] = tested on: Candida albicans; experiment: Anti-fungal data: Candida albicans; assay type: cell-based
[7] = tested on: Aspergillus fumigatus; experiment: Anti-fungal data: Aspergillus fumigatus; assay type: cell-based
[8] = Tables VI(a), VI(c), read-out: Leishmania donovani IC50
[9] = axenic amastigotes, Tables I-V, read-out: IC50 vs. L. donovani

SMILES	IC50 ([1]; Tables VI(a), VI(c))	IC50 [2]	IC50 [3, 8]	IC50 ([4]; Tables VI(a), VI(c))	IC50 ([5]; Tables VI(a), VI(c))	melting point	IC50 [3, 9]	IC50 [1]	IC50 ([3]; read-out: L. Donovani IC50)	IC50 [4]	IC50 [5]	MFC ([6]; strain A39)	MIC80 ([6]; strain A39)	MIC ([6]; strain A39, read-out: Candida albicans (A39) MIC100)	MIC80 ([7]; strain DUMC 168.95)	MIC ([7]; strain DUMC 168.95, read-out: Aspergillus. Fumigatus (DUMC 168.95) MIC100)
N=C(NO)c1ccc2oc(CCCCCc3cc4cc(C(=N)NO)ccc4o3)cc2c1 [Compound 192, 2-(5-(5-(N-Hydroxycarbamimidoyl)benzofuran-2-yl)pentyl)-N-hydroxybenzofuran-5-carboxamidine]	5 µM	27 µM	14.3 ± 6.49 µM	> 1.9 µM	11.9 µM											
CC(C)NC(=N)c1ccc(OCCCCCOc2cccc(-c3cc4ccc(C(=N)NC(C)C)cc4o3)c2)cc1.Cl.Cl [Compound 63, 2-(3-(5-(4-(N-Isopropylcarbamimidoyl)phenoxy)pentyloxy)phenyl)-N-isopropylbenzofuran-6-carboxamidine dihydrochloride]	0.911 µM	20.1 µM	8.92 ± 0.71 µM	0.294 µM	29.7 µM	253 to 255 °C	8.92 ± 0.71 µM									
Cl.Cl.c1cc(OCCCCCOc2ccc(C3=NCCN3)cc2)cc(-c2cc3ccc(C4=NCCN4)cc3o2)c1 [Compound 64, 2-(2-(3-(5-(4-(4,5-Dihydro-1H-imidazol-2-yl)phenoxy)pentyloxy)phenyl)benzofuran-6-yl) -4,5-dihydro-1H-imidazole dihydrochloride]	0.442 µM	3.7 µM	16.5 ± 3.45 µM	0.0469 µM	3.62 µM	188 to 190 °C	16.5 ± 3.45 µM									
CC(C)NC(=N)c1ccc(OCCCCOc2ccc(-c3cc4ccc(C(=N)NC(C)C)cc4o3)cc2)cc1.Cl.Cl [Compound 72, 2-(4-(4-(4-(N-Isopropylcarbamimidoyl)phenoxy)butoxy)phenyl)-N-isopropylbenzofuran-6-carboxamidine dihydrochloride]	1.75 µM	15.9 µM	4.52 ± 1.81 µM	0.139 µM	12.5 µM	280 to 283 °C	4.52 ± 1.81 µM									
N=C(NO)c1ccc2oc(CCCc3cc4cc(C(=N)NO)ccc4o3)cc2c1 [Compound 185, 2-(3-(5-(N-Hydroxycarbamimidoyl)benzofuran-2-yl)propyl)-N-hydroxybenzofuran-5-carboxamidine]	4.79 µM	23.8 µM	> 50 µM	> 2 µM	9.4 µM											
N=C(NO)c1ccc2oc(CCCCc3cc4cc(C(=N)NO)ccc4o3)cc2c1 [Compound 186, 2-(4-(5-(N-Hydroxycarbamimidoyl)benzofuran-2-yl)butyl)-N-hydroxybenzofuran-5-carboxamidine]	4.87 µM	> 184 µM	> 100 µM	> 2 µM	152 µM											
CONC(=N)c1ccc2oc(CCCc3cc4cc(C(=N)NOC)ccc4o3)cc2c1 [Compound 188, 2-(3-(5-(N-Methoxycarbamimidoyl)benzofuran-2-yl)propyl)-N-methoxybenzofuran-5-carboxamidine]	8.37 µM	> 157 µM	> 100 µM	> 1.7 µM	> 157 µM											
N=C(NO)c1ccc2cc(CCCCCc3cc4ccc(C(=N)NO)cc4o3)oc2c1 [Compound 184, 2-(5-(6-(N-Hydroxycarbamimidoyl)benzofuran-2-yl)pentyl)-N-hydroxybenzofuran-6-carboxamidine]	2.2 µM	19.4 µM	22.2 ± 0.64 µM	17.2 µM	4.9 µM											
CONC(=N)c1ccc(-c2cc3cc(C(=N)NOC)ccc3o2)cc1 [Compound 179, 2-(4-(N-Methoxycarbamimidoyl)phenyl)-N-methoxybenzofuran-5-carboxamidine]		> 219 µM						75.4 µM	> 100 µM	2.5 µM	> 219 µM					
Cl.Cl.c1cc(OCCCCOc2ccc(C3=NCCN3)cc2)cc(-c2cc3ccc(C4=NCCN4)cc3o2)c1 [Compound 61, 2-(2-(3-(4-(4-(4,5-Dihydro-1H-imidazol-2-yl)phenoxy)butoxy)phenyl)benzofuran-6-yl)-4,5-dihydro-1H-imidazole dihydrochloride]	2.86 µM	5.84 µM	7.38 ± 2.55 µM	0.0976 µM	8.92 µM	198 to 200 °C	7.38 ± 2.55 µM									
CONC(=N)c1ccc2oc(CCCCc3cc4cc(C(=N)NOC)ccc4o3)cc2c1 [Compound 189, 2-(4-(5-(N-Methoxycarbamimidoyl)benzofuran-2-yl)butyl)-N-methoxybenzofuran-5-carboxamidine]	6.87 µM	74.3 µM	> 100 µM	~2 µM	61.9 µM											
CONC(=N)c1ccc2cc(CCCCCc3cc4ccc(C(=N)NOC)cc4o3)oc2c1 [Compound 187, 2-(5-(6-(N-Methoxycarbamimidoyl)benzofuran-2-yl)pentyl)-N-methoxybenzofuran-6-carboxamidine]	13.8 µM	34.6 µM	> 50 µM	9.76 µM	38.4 µM											
Cl.Cl.c1cc(OCCCCCOc2ccc(C3=NCCN3)cc2)cc(-c2cc3cc(C4=NCCN4)ccc3o2)c1 [Compound 40, 2-(2-(3-(5-(4-(4,5-Dihydro-1H-imidazol-2-yl)phenoxy)pentyloxy)phenyl)benzofuran-5-yl)-4,5-dihydro-1H-imidazole dihydrochloride]	0.597 µM	2.62 µM	16.6 ± 6.2 µM	0.099 µM	7.88 µM	180 to 182 °C										
Cl.Cl.c1cc(C2=NCCN2)ccc1OCCCCCOc1ccc(-c2cc3ccc(C4=NCCN4)cc3o2)cc1 [Compound 76, 2-(2-(4-(5-(4-(4,5-Dihydro-1H-imidazol-2-yl)phenoxy)pentyloxy)phenyl)benzofuran-6-yl)-4,5-dihydro-1H-imidazole dihydrochloride]	0.262 µM	3.2 µM	10.4 ± 0.78 µM	0.028 µM	2.12 µM	212 to 215 °C	10.4 ± 0.78 µM									
Cl.Cl.c1cc(OCCCOc2ccc(C3=NCCN3)cc2)cc(-c2cc3ccc(C4=NCCN4)cc3o2)c1 [Compound 58, 2-(2-(3-(3-(4-(4,5-Dihydro-1H-imidazol-2-yl)phenoxy)propoxy)phenyl)benzofuran-6-yl)-4,5-dihydro-1H-imidazole dihydrochloride]	1.08 µM	10.1 µM	4.73 ± 1.71 µM	0.0952 µM	7.32 µM	208 to 211 °C	4.73 ± 1.71 µM									
Cl.Cl.c1cc(C2=NCCN2)ccc1OCCCCOc1ccc(-c2cc3ccc(C4=NCCN4)cc3o2)cc1 [Compound 73, 2-(2-(4-(4-(4-(4,5-Dihydro-1H-imidazol-2-yl)phenoxy)butoxy)phenyl)benzofuran-6-yl)-4,5-dihydro-1H-imidazole dihydrochloride]	0.942 µM	16.9 µM	13.2 ± 0.86 µM	0.0461 µM	9.82 µM	306 to 307 °C	13.2 ± 0.86 µM									
CC(C)NC(=N)c1ccc(OCCCOc2cccc(-c3cc4ccc(C(=N)NC(C)C)cc4o3)c2)cc1.Cl.Cl [Compound 57, 2-(3-(3-(4-(N-Isopropylcarbamimidoyl)phenoxy)propoxy)phenyl)-N-isopropylbenzofuran-6-carboxamidine dihydrochloride]	0.483 µM	82.3 µM	10.6 ± 6.42 µM	0.202 µM	69.8 µM	213 to 217 °C	10.6 ± 6.42 µM									
Cl.Cl.c1cc(OCCCCOc2ccc(C3=NCCN3)cc2)cc(-c2cc3cc(C4=NCCN4)ccc3o2)c1 [Compound 37, 2-(2-(3-(4-(4-(4,5-Dihydro-1H-imidazol-2-yl)phenoxy)butoxy)phenyl)benzofuran-5-yl)-4,5-dihydro-1H-imidazole dihydrochloride]	1.17 µM	9.52 µM	11.7 ± 0.14 µM	0.0986 µM		190 to 195 °C	11.7 ± 0.14 µM									
Cl.Cl.N=C(N)c1ccc(OCCCCCCOc2cccc(-c3cc4ccc(C(=N)N)cc4o3)c2)cc1 [Compound 65, 2-(3-(6-(4-Carbamimidoylphenoxy)hexyloxy)phenyl)benzofuran-6-carboxamidine dihydrochloride]	1.22 µM	4.33 µM	23.6 ± 1.09 µM	0.479 µM		268 to 271 °C	23.6 ± 1.09 µM									
Cl.Cl.c1cc(C2=NCCN2)ccc1OCCCOc1ccc(-c2cc3cc(C4=NCCN4)ccc3o2)cc1 [Compound 46, 2-(2-(4-(3-(4-(4,5-Dihydro-1H-imidazol-2-yl)phenoxy)propoxy)phenyl)benzofuran-5-yl)-4,5-dihydro-1H-imidazole dihydrochloride]	0.0606 µM	10.3 µM		0.0432 µM	7.6 µM	262 to 263 °C						10 µg/mL	10 µg/mL	10 µg/mL	10 µg/mL	> 100 µg/mL
CC(C)NC(=N)c1ccc(-c2cc3cc(C(=N)NC(C)C)ccc3o2)cc1 [Compound 164, 2-(4-(N-isopropylcarbamimidoyl)phenyl)-N-isopropylbenzofuran-5-carboxamidine]		> 198 µM						0.125 µM	1.58 ± 1.09 µM	0.073 µM	> 198 µM					
